We go through 19 molecules from article PMC4855620, “Structure‐activity relationship of the peptide binding‐motif mediating the BRCA2:RAD51 protein–protein interaction” (Febs Letters, 2016).

Entries after “also recorded” stand apart in the source; their conditions may differ. Read-outs that look alike come from different tables or passages of the source. Residues, ends and D or L forms follow the SMILES beside them.

In general, Kd refers to the equilibrium constant for the complex coming apart.

The target in assay [1] is HumRadA2 (humanised, monomeric RadA; surrogate for RAD51) (Pyrococcus furiosus, UniProt O74036). Briefly: Isothermal titration calorimetry of peptides against HumRadA2. In kind it is binding. The note with it: for Change in binding affinity relative to FHTA: ITC K D compared with FHTA; for ΔH: Tris pH 7.5, 100 mM NaCl, low c-value conditions, ± = model-fitting error; for TΔS: ΔS derived from ΔG by subtracting ΔH. How it is done: Protein expression and purification was performed as described previously 15. In brief, monomeric HumRadA2 was expressed in E. coli using T7‐based expression vector at 37 °C for 3 h. Soluble cell lysate was heat treated to precipitate most of the cellular proteins and the soluble fraction containing HumRadA2 was purified using a combination of cation exchange chromatography at pH 6.0 and size‐exclusion chromatography in 10 mM MES, 100 mM NaCl pH 6.0 buffer. Protein concentration was determined using the calculated extinction coefficient at 280 nm, and stored at −80 °C in small aliquots after flash freezing.
Isothermal titration calorimetry experiments were performed at 25 °C on a MicroCal iTC200. HumRadA2 (600 μM in 20 mM MES pH 6.0 with 100 mM NaCl and 0.5 mM EDTA) was diluted with Tris buffer (200 mM, pH 7.5 with 100 mM NaCl) to 64–83 μM. […] The peptide solution was titrated into the protein solution; 16 injections (2.4 μL) of 4.8 s duration were made at 80‐s intervals. The initial injection of ligand (0.4 μL) was discarded during data analysis. […] The data were processed and thermodynamic parameters obtained by fitting the data to a single‐site‐binding model using Origin software and fixing the stoichiometry as 1.0 for weak‐binding ligands 16.
For orientation: Isothermal titration calorimetry measures the heat released or taken up as one component is titrated into another.

For assay [2], the target named is HumRadA2 (humanised, monomeric RadA from Pyrococcus furiosus) (Pyrococcus furiosus) (UniProt O74036). Briefly: ITC; peptide (2.5-5 mM) titrated into HumRadA2 (64-83 μM) at 25 °C, MicroCal iTC200, 200 mM Tris pH 7.5, 100 mM NaCl; single-site model, stoichiometry fixed as 1.0 for weak-binding ligands; low c-value conditions.
Assay [3] shares this target. The description is as above. The source holds these as a separate data set.
For assay [4], the system named is RAD51. The note with it: RAD51 oligomerisation sequence FTTA mutated; cited from earlier work. An excerpt: Table 1 Summary of FxxA‐relevant mutations previously reported and degree of characterisation. The mutation, relevant peptide context, resulting FxxA motif sequence and experimental technique for each entry is given. For clarity, mutated residues are shown in bold | column: Effect

Where [5] appears, read: ITC, 25 °C, MicroCal iTC200, peptide 2.5–5 mM in 200 mM Tris pH 7.5, 100 mM NaCl titrated into 64–83 μM HumRadA2, single-site model, stoichiometry fixed at 1.0 for weak binders, ± = fitting error.

For `CC(=O)N[C@@H](Cc1c[nH]c2ccccc12)C(=O)N[C@@H](Cc1c[nH]cn1)C(=O)N1CCC[C@H]1C(=O)N[C@@H](C)C(N)=O` [WHPA] (Ac-WHPA-NH2), the “Change in binding affinity relative to FHTA” value in assay [1] is listed as “no improvement”. For the same molecule, in assay [1] (setting [5]), the Kd was determined as 330 ± 25 µM. Further, in assay [1] (ITC, 25 °C), the ΔH is -6.801 ± 0.318 kcal/mol and the TΔS was -2.044 kcal/mol.
For the molecule `CC(=O)N[C@@H](Cc1ccccc1)C(=O)N[C@@H](Cc1c[nH]cn1)C(=O)N[C@@H](C)C(=O)N[C@@H](C)C(N)=O` [FHAA] (Ac-FHAA-NH2), in assay [1] (setting [5]), the Kd turned out to be 675 ± 60 µM. In addition, in assay [1] (ITC, 25 °C), the ΔH is -7.948 ± 0.466 kcal/mol and the TΔS was -3.636 kcal/mol.
“FHTU tetrapeptide (U = α-amino butyric acid)” yielded a dH in assay [2] of -14.6 kcal/mol.
Consider `CC(=O)N[C@@H](Cc1c[nH]c2ccccc12)C(=O)N[C@@H](Cc1c[nH]cn1)C(=O)N[C@H](C(=O)N[C@@H](C)C(N)=O)[C@@H](C)O` [WHTA] (Ac-WHTA-NH2), for which, in assay [1], the “Change in binding affinity relative to FHTA” value was “increase the binding affinity of the peptide approximately threefold”. Besides, the Kd in assay [1] (setting [5]) was found to be 93 ± 3 µM. In assay [1] (ITC, 25 °C), the ΔH is -2.768 ± 0.034 kcal/mol and the TΔS was determined as 2.727 kcal/mol.
In the case of “FPTA [N-acetylated, C-amide terminated tetrapeptide FPTA]”, the “K D” value in assay [1] (setting [5]) is on record as “no affinity for the protein; also recorded: No detectable binding”.
As for `CC(=O)N[C@@H](Cc1ccccc1)C(=O)N[C@@H](Cc1c[nH]cn1)C(=O)N[C@H](C(=O)N[C@@H](C)C(N)=O)[C@@H](C)O` [FHTA] (Ac-FHTA-NH2), in assay [1] (ITC, 25 °C), the ΔH is -2.388 ± 0.094 kcal/mol and the TΔS is 2.453 kcal/mol.
Regarding `CC(=O)N[C@@H](Cc1ccccc1)C(=O)N[C@@H](Cc1c[nH]cn1)C(=O)N[C@H](C(=O)NCC(N)=O)[C@@H](C)O` [FHTG] (Ac-FHTG-NH2), the “Change in binding affinity relative to FHTA” value in assay [1] was “approximately sixfold drop in binding affinity”. Further, in assay [1] (setting [5]), the Kd was determined as 1590 ± 300 µM. Besides, in assay [1] (ITC, 25 °C), the ΔH was -5.518 ± 0.924 kcal/mol and the TΔS is -1.702 kcal/mol.
Consider `CC(=O)N[C@@H](Cc1ccccc1)C(=O)N[C@@H](CC(N)=O)C(=O)N[C@H](C(=O)N[C@@H](C)C(N)=O)[C@@H](C)O` [FNTA] (Ac-FNTA-NH2), for which the Kd in assay [1] (setting [5]) amounted to 613 ± 44 µM. Further, in assay [1] (ITC, 25 °C), the ΔH was -4.036 ± 0.177 kcal/mol and the TΔS worked out at 0.346 kcal/mol.
On to `CC(=O)N[C@@H](Cc1ccccc1)C(=O)N[C@@H](Cc1c[nH]cn1)C(=O)N1CCC[C@H]1C(=O)N[C@@H](C)C(N)=O` [FHPA] (Ac-FHPA-NH2), for which, in assay [1] (setting [5]), the Kd is 113 ± 3 µM. Also, in assay [1] (ITC, 25 °C), the ΔH is -2.155 ± 0.026 kcal/mol and the TΔS was determined as 3.218 kcal/mol.
`CC[C@H](NC(=O)[C@@H](NC(=O)[C@H](Cc1c[nH]cn1)NC(=O)[C@H](Cc1ccccc1)NC(C)=O)[C@@H](C)O)C(N)=O` [FHTU] (HELM PEPTIDE1{[ac].F.H.T.[Abu].[am]}$$$$V2.0): the Kd in assay [1] (setting [5]) worked out at 680 ± 51 µM.

B1: FHTA tetrapeptide (FxxA motif of BRC4 of BRCA2) (peptide)
peptide: Ac-FHTA-NH2
In assay [2], B1 gave a Kd of 280 µM and a dH of -2.39 kcal/mol.

B2: WHTA tetrapeptide (peptide)
peptide: Ac-WHTA-NH2
In turn, B2 returned a dH in assay [2] of -2.77 kcal/mol.

B3: FHTG tetrapeptide (peptide)
peptide: Ac-FHTG-NH2
In assay [2], B3 returned a dH of -5.52 kcal/mol.

B4: FHPA tetrapeptide (peptide)
peptide: Ac-FHPA-NH2
Take B4: the dH in assay [2] was -2.16 kcal/mol.

B5: WHPA tetrapeptide (peptide)
peptide: Ac-WHPA-NH2
For the molecule B5, in assay [2], the dH is -6.8 kcal/mol. In addition, in assay [3], the Kd is 690 µM.

B6: FHAA tetrapeptide (peptide)
peptide: Ac-FHAA-NH2
In assay [2], B6 gave a dH of -7.95 kcal/mol.

B7: FNTA tetrapeptide (peptide)
peptide: Ac-FNTA-NH2
B7 gave a dH in assay [2] of -4.04 kcal/mol.

B8: RAD51 A89E: RAD51 with oligomerisation sequence FTTA mutated to FTTE (literature) (protein, UniProt Q06609 2-339, looked up, variant A89E)
DNA repair protein RAD51 …: AMQMQLEANADTSVEEESFGPQPISRLEQCGINANDVKKLEEAGFHTVEAVAYAPKKELINIKGISEAKADKILAEAAKLVPMGFTTETEFHQRRSEIIQITTGSKELDKLLQGGIETGSITEMFGEFRTGKTQICHTLAVTCQLPIDRGGGEGKAMYIDTEGTFRPERLLAVAERYGLSGSDVLDNVAYARAFNTDHQTQLLYQASAMMVESRYALLIVDSATALYRTDYSGRGELSARQMHLARFLRMLLRLADEFGVAVVITNQVVAQVDGAAMFAADPKKPIGGNIIAHASTTRLYLRKGRGETRICKIYDSPCLPEAEAMFAINADGVGDAKD
For the molecule B8, the “Effect of mutation (binding)” value in assay [4] is on record as “No binding”.

B9: RAD51 F86E: RAD51 with oligomerisation sequence FTTA mutated to ETTA (literature) (protein, UniProt Q06609 2-339, looked up, variant F86E)
DNA repair protein RAD51 …: AMQMQLEANADTSVEEESFGPQPISRLEQCGINANDVKKLEEAGFHTVEAVAYAPKKELINIKGISEAKADKILAEAAKLVPMGETTATEFHQRRSEIIQITTGSKELDKLLQGGIETGSITEMFGEFRTGKTQICHTLAVTCQLPIDRGGGEGKAMYIDTEGTFRPERLLAVAERYGLSGSDVLDNVAYARAFNTDHQTQLLYQASAMMVESRYALLIVDSATALYRTDYSGRGELSARQMHLARFLRMLLRLADEFGVAVVITNQVVAQVDGAAMFAADPKKPIGGNIIAHASTTRLYLRKGRGETRICKIYDSPCLPEAEAMFAINADGVGDAKD
Regarding B9, in assay [4], the “Effect of mutation (binding)” value is reported as “No binding”.
